Experimental data as given in ChEMBL document CHEMBL1201862, “PubChem BioAssay data set” (2004).
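48-hour exposure; five concentrations; linearly interpolated endpoints. GI50: concentration for 50% inhibition of growth.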 The source made the active and inactive calls. Cut-off read from the data, not from the text of the source: active = GI50 up to about 1.1 µM and inactive = higher.

Legend:
Experiment in all cases: inhibition of tumour cell growth, NCI panel, 48 h
TK-10 = tested on: TK-10
BT-549 = tested on: BT-549
COLO 205 = tested on: COLO 205
UACC-62 = tested on: UACC-62
CCRF-CEM = tested on: CCRF-CEM
UO-31 = tested on: UO-31
M14 = tested on: M14
Hs-578T = tested on: Hs-578T
OVCAR-8 = tested on: OVCAR-8
NCI-H23 = tested on: NCI-H23
OVCAR-3 = tested on: OVCAR-3
MOLT-4 = tested on: MOLT-4
SNB-19 = tested on: SNB-19
RXF 393 = tested on: RXF 393
HT-29 = tested on: HT-29
NCI-H226 = tested on: NCI-H226
IGROV-1 = tested on: IGROV-1
RPMI-8226 = tested on: RPMI-8226
LOX IMVI = tested on: LOX IMVI
HOP-92 = tested on: HOP-92

Measured: GI50

CCOC(=O)c1c(NC(=O)c2ccc(Br)cc2)sc2c1CCCC2
inactive: TK-10 > 100 µM | BT-549 > 100 µM | COLO 205 > 100 µM | UACC-62 > 100 µM | CCRF-CEM > 100 µM | UO-31 > 100 µM | M14 > 100 µM | Hs-578T 75.5 µM | OVCAR-8 > 100 µM | NCI-H23 > 100 µM | OVCAR-3 > 100 µM | MOLT-4 > 100 µM | SNB-19 > 100 µM | RXF 393 > 100 µM | HT-29 > 100 µM | NCI-H226 > 100 µM | IGROV-1 97.1 µM | RPMI-8226 > 100 µM

O=C1C(NCCc2cc(Cl)c(O)c(Cl)c2)=CC(=O)c2[nH]cnc21
inactive: TK-10 51.8 µM | BT-549 33.7 µM | COLO 205 21.2 µM | UACC-62 18.8 µM | UO-31 > 100 µM | M14 10.7 µM | Hs-578T 80 µM | OVCAR-8 32.2 µM | NCI-H23 17.9 µM | OVCAR-3 17.7 µM | MOLT-4 24.3 µM | SNB-19 33.7 µM | HT-29 40.4 µM | IGROV-1 18.5 µM | LOX IMVI 35.2 µM | RPMI-8226 46.7 µM

CC(=O)/C=C(/C=N/O)c1ccccc1
inactive: TK-10 > 100 µM | BT-549 > 100 µM | COLO 205 > 100 µM | UACC-62 > 100 µM | CCRF-CEM > 100 µM | UO-31 > 100 µM | M14 > 100 µM | Hs-578T > 100 µM | OVCAR-8 > 100 µM | NCI-H23 > 100 µM | OVCAR-3 > 100 µM | MOLT-4 > 100 µM | SNB-19 > 100 µM | HT-29 > 100 µM | NCI-H226 > 100 µM | IGROV-1 > 100 µM | LOX IMVI > 100 µM | RPMI-8226 > 100 µM

CCCC(=O)Nc1ccc2c(c1)CN1C(=O)c3ccccc3C1=N2
inactive: TK-10 > 100 µM | BT-549 > 100 µM | COLO 205 > 100 µM | UACC-62 > 100 µM | UO-31 > 100 µM | M14 > 100 µM | Hs-578T > 100 µM | OVCAR-8 > 100 µM | NCI-H23 > 100 µM | OVCAR-3 > 100 µM | MOLT-4 > 100 µM | SNB-19 > 100 µM | HOP-92 > 100 µM | HT-29 > 100 µM | NCI-H226 > 100 µM | IGROV-1 > 100 µM | LOX IMVI > 100 µM | RPMI-8226 > 100 µM

COc1ccc(N2C(=O)C3ON(C(C(N)=O)c4ccccc4)C(c4ccc(-c5ccccc5)cc4)C3C2=O)cc1 (stereo unspecified)
inactive: TK-10 > 50 µM | BT-549 > 50 µM | COLO 205 25.2 µM | UACC-62 > 50 µM | CCRF-CEM 10.2 µM | UO-31 > 50 µM | M14 48.4 µM | Hs-578T > 50 µM | OVCAR-8 > 50 µM | NCI-H23 > 50 µM | OVCAR-3 > 50 µM | MOLT-4 > 50 µM | SNB-19 > 50 µM | RXF 393 > 50 µM | HT-29 24.8 µM | NCI-H226 > 50 µM | IGROV-1 48.8 µM | LOX IMVI 36.5 µM | RPMI-8226 16.8 µM

Cc1ccc(S(=O)(=O)c2ccsc2NC(=O)C(F)(F)F)cc1
inactive: TK-10 61.1 µM | BT-549 40.3 µM | COLO 205 10.8 µM | UACC-62 35.7 µM | UO-31 28.9 µM | M14 43.4 µM | Hs-578T 32.7 µM | OVCAR-8 31.8 µM | NCI-H23 34.5 µM | OVCAR-3 42.6 µM | MOLT-4 18.5 µM | SNB-19 65 µM | HOP-92 30.9 µM | HT-29 35.8 µM | NCI-H226 39.7 µM | IGROV-1 62.8 µM | LOX IMVI 28.2 µM | RPMI-8226 8.02 µM

O=C1CSC(c2ccc([N+](=O)[O-])cc2)N1c1nc(-c2ccc3c(c2)CCCC3)cs1 (stereo unspecified)
inactive: TK-10 > 100 µM | BT-549 94.6 µM | COLO 205 > 100 µM | UACC-62 63.1 µM | UO-31 > 100 µM | Hs-578T > 100 µM | OVCAR-8 > 100 µM | NCI-H23 > 100 µM | OVCAR-3 > 100 µM | MOLT-4 > 100 µM | SNB-19 > 100 µM | RXF 393 > 100 µM | HT-29 > 100 µM | NCI-H226 > 100 µM | IGROV-1 25.1 µM | LOX IMVI 25.1 µM | RPMI-8226 > 100 µM

CCN(CC)C(=S)Nc1ccc(-c2cc3ccc(O)cc3oc2=O)cc1
inactive: TK-10 39 µM | BT-549 26.1 µM | COLO 205 29.4 µM | UACC-62 32.4 µM | CCRF-CEM 16.4 µM | UO-31 17.5 µM | M14 27.2 µM | Hs-578T 25.4 µM | OVCAR-8 26.9 µM | NCI-H23 29.7 µM | OVCAR-3 17.4 µM | MOLT-4 13.4 µM | SNB-19 29.9 µM | RXF 393 30.2 µM | HT-29 16.8 µM | NCI-H226 25.6 µM | IGROV-1 30.6 µM | LOX IMVI 25.9 µM | RPMI-8226 21.6 µM

CN1CCC/C1=C1/C(=O)N(c2ccccc2)N=C1c1ccc[nH]1
inactive: TK-10 > 100 µM | BT-549 > 100 µM | COLO 205 > 100 µM | UACC-62 > 100 µM | CCRF-CEM > 100 µM | UO-31 > 100 µM | M14 > 100 µM | Hs-578T > 100 µM | OVCAR-8 > 100 µM | NCI-H23 > 100 µM | OVCAR-3 > 100 µM | MOLT-4 > 100 µM | SNB-19 > 100 µM | RXF 393 > 100 µM | NCI-H226 > 100 µM | IGROV-1 > 100 µM | LOX IMVI > 100 µM | RPMI-8226 > 100 µM

N#CC(Cc1ccccc1)N(CCC1=CCCCC1)Cc1ccccc1 (stereo unspecified)
inactive: TK-10 > 100 µM | BT-549 71.9 µM | COLO 205 23.4 µM | UACC-62 81.3 µM | UO-31 > 100 µM | M14 44.6 µM | Hs-578T > 100 µM | OVCAR-8 72.1 µM | NCI-H23 56.8 µM | OVCAR-3 81.7 µM | MOLT-4 22.3 µM | SNB-19 > 100 µM | RXF 393 46.1 µM | HOP-92 35.1 µM | HT-29 32.2 µM | IGROV-1 81.1 µM | RPMI-8226 17.9 µM

CCOC(=O)C1=CCOc2cc(N(C)C)ccc21
inactive: TK-10 > 100 µM | BT-549 > 100 µM | COLO 205 > 100 µM | UACC-62 > 100 µM | CCRF-CEM 21.6 µM | UO-31 > 100 µM | M14 > 100 µM | Hs-578T > 100 µM | OVCAR-8 > 100 µM | NCI-H23 > 100 µM | OVCAR-3 21.7 µM | SNB-19 > 100 µM | RXF 393 > 100 µM | HT-29 > 100 µM | NCI-H226 > 100 µM | IGROV-1 > 100 µM | LOX IMVI > 100 µM | RPMI-8226 > 100 µM

N#C/C(=C\c1ccc2ccccc2c1)C(=O)c1ccccc1
inactive: TK-10 > 100 µM | BT-549 52.2 µM | COLO 205 > 100 µM | UACC-62 > 57 µM | CCRF-CEM 23.8 µM | UO-31 > 86.7 µM | M14 > 64.9 µM | Hs-578T 22.2 µM | OVCAR-8 33.7 µM | NCI-H23 > 57.4 µM | OVCAR-3 > 65.2 µM | MOLT-4 23.5 µM | SNB-19 > 82.4 µM | RXF 393 36.2 µM | HT-29 > 67.3 µM | NCI-H226 > 100 µM | IGROV-1 > 100 µM | LOX IMVI 26.1 µM | RPMI-8226 34.2 µM

CCC(C)C1(O)OC2CC3(C)OC(=CC3=O)/C(C)=C\C3OC(=O)C1(C)C32 (stereo unspecified)
inactive: TK-10 21 µM | BT-549 3.57 µM | COLO 205 8.93 µM | UACC-62 14.3 µM | CCRF-CEM 4.83 µM | UO-31 17.8 µM | M14 21.1 µM | Hs-578T 30.5 µM | OVCAR-8 16 µM | NCI-H23 5.53 µM | OVCAR-3 10.4 µM | MOLT-4 12.3 µM | SNB-19 33.7 µM | HOP-92 8.75 µM | HT-29 14.2 µM | NCI-H226 25.9 µM | IGROV-1 18.8 µM | LOX IMVI 14.7 µM | RPMI-8226 7.1 µM

CCC(C)(C)c1ccc(OCCCCNC(=O)c2ccc3ccccc3c2O)c(C(C)(C)CC)c1
inactive: TK-10 13.4 µM | BT-549 30.8 µM | COLO 205 14.2 µM | UACC-62 16.3 µM | CCRF-CEM 9.68 µM | UO-31 29.3 µM | M14 48.9 µM | Hs-578T 31.5 µM | OVCAR-8 27.5 µM | NCI-H23 23.7 µM | OVCAR-3 19.4 µM | MOLT-4 16.1 µM | SNB-19 55.2 µM | HT-29 44.7 µM | NCI-H226 12.6 µM | IGROV-1 31.2 µM

O=C(O)Cn1ccc(=O)c2cc([N+](=O)[O-])ccc21
inactive: TK-10 > 100 µM | BT-549 > 100 µM | COLO 205 48.8 µM | UACC-62 > 100 µM | CCRF-CEM > 100 µM | UO-31 > 100 µM | M14 > 100 µM | Hs-578T > 100 µM | OVCAR-8 > 100 µM | NCI-H23 > 100 µM | OVCAR-3 > 100 µM | MOLT-4 > 100 µM | SNB-19 > 100 µM | HT-29 > 100 µM | NCI-H226 > 100 µM | IGROV-1 > 100 µM
